Test results reported in PubChem BioAssay (NCI).
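Growth conditions: 96-well plates. Treatment: test compound, 48 hours, 5 concentrations. Analysis: linear interpolation between bracketing concentrations; unreached endpoints set to highest concentration. GI50 marks 50% less growth. TGI is the concentration that stops growth completely.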

Assays:
Assay in all cases: DTP human tumour cell line panel, 48 h
HOP-62 NSCLC = tested on: HOP-62 NSCLC
MDA-MB-231 breast = tested on: MDA-MB-231 breast
CCRF-CEM leukemia = tested on: CCRF-CEM leukemia
BT-549 breast = tested on: BT-549 breast
SR leukemia = tested on: SR leukemia
MDA-MB-435 = tested on: MDA-MB-435
OVCAR-3 ovarian = tested on: OVCAR-3 ovarian
A549 NSCLC = tested on: A549 NSCLC
SF-295 CNS = tested on: SF-295 CNS
ACHN renal = tested on: ACHN renal
IGROV1 ovarian = tested on: IGROV1 ovarian
OVCAR-8 ovarian = tested on: OVCAR-8 ovarian
NCI-H23 lung = tested on: NCI-H23 lung
COLO 205 colon = tested on: COLO 205 colon
EKVX NSCLC = tested on: EKVX NSCLC
OVCAR-5 ovarian = tested on: OVCAR-5 ovarian
UACC-257 melanoma = tested on: UACC-257 melanoma
KM12 colon = tested on: KM12 colon
SK-MEL-2 melanoma = tested on: SK-MEL-2 melanoma
SF-539 CNS = tested on: SF-539 CNS
DU-145 prostate = tested on: DU-145 prostate
MOLT-4 leukemia = tested on: MOLT-4 leukemia
SNB-19 CNS = tested on: SNB-19 CNS
SW-620 colon = tested on: SW-620 colon
PC-3 prostate = tested on: PC-3 prostate
HL-60(TB) leukemia = tested on: HL-60(TB) leukemia
LOX IMVI melanoma = tested on: LOX IMVI melanoma
RXF 393 renal = tested on: RXF 393 renal
SN12C renal = tested on: SN12C renal

C=C(C)[C@@H]1CC[C@]2(C)[C@H](CC[C@@H]3[C@@H]([C@@](C)(O)CCC=C(C)C)CC[C@]32C)[C@@]1(C)CCC(=O)N1CCN(C)CC1
GI50 (HOP-62 NSCLC): 12.8 µM
TGI (HOP-62 NSCLC): 26.1 µM
GI50 (MDA-MB-231 breast): 13.4 µM
TGI (MDA-MB-231 breast): 26.7 µM
GI50 (CCRF-CEM leukemia): 11.6 µM
TGI (CCRF-CEM leukemia): 37.6 µM
GI50 (BT-549 breast): 11.2 µM
TGI (BT-549 breast): 24.1 µM
GI50 (SR leukemia): 3.39 µM
TGI (SR leukemia): 21.6 µM
GI50 (MDA-MB-435): 12.2 µM
TGI (MDA-MB-435): 26.5 µM
GI50 (OVCAR-3 ovarian): 10.4 µM
TGI (OVCAR-3 ovarian): 22.5 µM
GI50 (A549 NSCLC): 9.65 µM
TGI (A549 NSCLC): 24.2 µM
GI50 (SF-295 CNS): 13.4 µM
TGI (SF-295 CNS): 26.2 µM
GI50 (ACHN renal): 13.6 µM
TGI (ACHN renal): 26.5 µM
GI50 (IGROV1 ovarian): 12.7 µM
TGI (IGROV1 ovarian): 27.4 µM
GI50 (OVCAR-8 ovarian): 14.1 µM
TGI (OVCAR-8 ovarian): 30.5 µM
GI50 (NCI-H23 lung): 13.7 µM
TGI (NCI-H23 lung): 27.5 µM
GI50 (COLO 205 colon): 12.3 µM
TGI (COLO 205 colon): 26.8 µM
GI50 (EKVX NSCLC): 11.6 µM
TGI (EKVX NSCLC): 23.9 µM
GI50 (OVCAR-5 ovarian): 14 µM
TGI (OVCAR-5 ovarian): 27.4 µM
GI50 (UACC-257 melanoma): 11.8 µM
TGI (UACC-257 melanoma): 25.6 µM
GI50 (KM12 colon): 10.5 µM
TGI (KM12 colon): 23.6 µM
GI50 (SK-MEL-2 melanoma): 14.8 µM
TGI (SK-MEL-2 melanoma): 29.8 µM
GI50 (SF-539 CNS): 9.44 µM
TGI (SF-539 CNS): 21.7 µM
GI50 (DU-145 prostate): 11.9 µM
TGI (DU-145 prostate): 24.6 µM
GI50 (MOLT-4 leukemia): 6.39 µM
TGI (MOLT-4 leukemia): 29.3 µM
GI50 (SNB-19 CNS): 15 µM
TGI (SNB-19 CNS): 28.4 µM
GI50 (SW-620 colon): 13 µM
TGI (SW-620 colon): 28.5 µM
GI50 (PC-3 prostate): 3.77 µM
TGI (PC-3 prostate): 15.8 µM
GI50 (HL-60(TB) leukemia): 4.26 µM
TGI (HL-60(TB) leukemia): 19.2 µM
GI50 (LOX IMVI melanoma): 13.4 µM
TGI (LOX IMVI melanoma): 26.5 µM
GI50 (RXF 393 renal): 5.25 µM
TGI (RXF 393 renal): 16.4 µM
GI50 (SN12C renal): 11.4 µM
TGI (SN12C renal): 24.2 µM
